Laboratory results reported in the NIST ThermoML archive (doi:10.1021/je9008206).
± gives the expanded uncertainty stated by the source.

Tests used:
[1] = Crystal; DTA
[2] = Molar enthalpy of transition or fusion; conditions: Crystal; DSC

Row | Normal melting temperature [1] [°C] | Molar enthalpy of transition or fusion [2] [kcal/mol] | SMILES
1 | 124.80 ± 0.53 | 3.19 ± 0.206 | O=C1OC(=O)c2c(Cl)cccc21 [3-chlorophthalic anhydride]
2 | 94.20 ± 0.53 | 7.9 ± 0.239 | O=C1OC(=O)c2cc(Cl)ccc21 [4-chlorophthalic anhydride]
